Measurements from PubChem BioAssay AID330 (DTP/NCI, 2004).
Several values for one entry are separate records, joined by “and”; a condition that tells them apart may be missing. Identical values can stand only once. Toxic doses and inconclusive results are not listed. Rule for the calls: active = survival T/C of 150% or more; inactive = T/C below 125% in these data.

System: P388 leukemia ip, CD2F1 mice, survival T/C
Experiment: NCI In Vivo Anticancer Drug Screen. Data for tumor model P388 Leukemia (intraperitoneal) in CD2F1 (CDF1) mice
Settings: endpoint: median survival time, higher = longer survival
Summary of the method: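 Mice carrying the transplanted tumor received test compound or vehicle. Survival was recorded in each group, and the value is the treated-group measurement divided by that of the vehicle-treated control group.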

[1] = dose: 6.25 mg/kg/injection, schedule: Q01DX009 (ip), vehicle: saline with Tween-80
[2] = dose: 12.5 mg/kg/injection, schedule: Q01DX009 (ip), vehicle: saline with Tween-80
[3] = dose: 50.0 mg/kg/injection, schedule: Q01DX009 (ip), vehicle: Klucel (hydroxypropylcellulose) (HPC)
[4] = dose: 100.0 mg/kg/injection, schedule: Q01DX009 (ip), vehicle: Klucel (hydroxypropylcellulose) (HPC)
[5] = dose: 200.0 mg/kg/injection, schedule: Q01DX009 (ip), vehicle: Klucel (hydroxypropylcellulose) (HPC)
[6] = dose: 60.0 mg/kg/injection, schedule: Q01DX005 (ip), vehicle: saline with Tween-80
[7] = dose: 120.0 mg/kg/injection, schedule: Q01DX005 (ip), vehicle: saline with Tween-80
[8] = dose: 240.0 mg/kg/injection, schedule: Q01DX005 (ip), vehicle: saline with Tween-80
[9] = dose: 6.25 mg/kg/injection, schedule: Q01DX009 (ip), vehicle: saline
[10] = dose: 12.5 mg/kg/injection, schedule: Q01DX009 (ip), vehicle: saline
[11] = dose: 25.0 mg/kg/injection, schedule: Q01DX009 (ip), vehicle: saline

Measured: T/C

O=[N+]([O-])C1CCC(O)C([N+](=O)[O-])C1 (stereo unspecified) (tested in a mixture with another compound)
inactive: [1] 100 % of control | [2] 96 % of control | dose: 25.0 mg/kg/injection, schedule: Q01DX009 (ip), vehicle: saline with Tween-80 99 % of control

Cn1nc(NC(=O)C(F)(F)F)c2ncc(-c3ccc(Cl)cc3)nc21
inactive: dose: 100.0 mg/kg/injection, schedule: Q04DX003 (ip), vehicle: saline with Tween-80 100 % of control | dose: 200.0 mg/kg/injection, schedule: Q04DX003 (ip), vehicle: saline with Tween-80 90 % of control | dose: 400.0 mg/kg/injection, schedule: Q04DX003 (ip), vehicle: saline with Tween-80 90 % of control

CCN1CSC(=S)N(Cc2ccccc2)C1
inactive: [3] 99 % of control | [4] 101 % of control | [5] 101 % of control

COC(=O)C12Oc3ccc(-c4ccc5c(c4O)C(=O)C4=CCC(C)C(O)C4(C(=O)OC)O5)c(O)c3C(=O)C1=CCC(C)C2O (stereo unspecified)
inactive: dose: 2.5 mg/kg/injection, schedule: Q01DX009 (ip), vehicle: saline with Tween-80 91 % of control | dose: 5.0 mg/kg/injection, schedule: Q01DX009 (ip), vehicle: saline with Tween-80 95 % of control | dose: 10.0 mg/kg/injection, schedule: Q01DX009 (ip), vehicle: saline with Tween-80 88 % of control

CCOn1nnc2c([N+](=O)[O-])cccc21
inactive: dose: 50.0 mg/kg/injection, schedule: Q01DX005 (ip), vehicle: saline with Tween-80 96 % of control | dose: 100.0 mg/kg/injection, schedule: Q01DX005 (ip), vehicle: saline with Tween-80 92 % of control

O=C1NC(=S)S/C1=C\c1ccncc1
inactive: [3] 100 % of control and 110 % of control and 116 % of control | [4] 106 % of control (2×) and 114 % of control | [5] 98 % of control and 121 % of control and 91 % of control | dose: 400.0 mg/kg/injection, schedule: Q01DX009 (ip), vehicle: Klucel (hydroxypropylcellulose) (HPC) 106 % of control

COc1ccc2c(C)cc(N/N=C\c3ccnc4ccccc34)nc2c1
inactive: dose: 50.0 mg/kg/injection, schedule: Q01DX005 (ip), vehicle: Klucel (hydroxypropylcellulose) (HPC) 91 % of control | dose: 100.0 mg/kg/injection, schedule: Q01DX005 (ip), vehicle: Klucel (hydroxypropylcellulose) (HPC) 92 % of control | dose: 200.0 mg/kg/injection, schedule: Q01DX005 (ip), vehicle: Klucel (hydroxypropylcellulose) (HPC) 90 % of control

COC(=O)/C=C/CCO
inactive: dose: 50.0 mg/kg/injection, schedule: Q01DX009 (ip), vehicle: saline with Tween-80 111 % of control | dose: 100.0 mg/kg/injection, schedule: Q01DX009 (ip), vehicle: saline with Tween-80 95 % of control | dose: 200.0 mg/kg/injection, schedule: Q01DX009 (ip), vehicle: saline with Tween-80 108 % of control

Cc1cc(O)cc2c1c(=O)c1ccccc1n2C
inactive: [6] 100 % of control | [7] 100 % of control | [8] 96 % of control

CCC1(O)C(=O)OCc2c1cc1n(c2=O)Cc2c-1nc1ccccc1c2OC (stereo unspecified)
inactive: [9] 103 % of control | [10] 100 % of control | [11] 108 % of control

Nc1[nH]c(=S)ncc1-c1ccc(Cl)c(Cl)c1
inactive: [6] 94 % of control | [7] 93 % of control | [8] 88 % of control

CCCCCCCCCCCCCCCC[N+](C)(C)CCBr
inactive: dose: 3.13 mg/kg/injection, schedule: Q01DX009 (ip), vehicle: saline with Tween-80 109 % of control and 100 % of control | [1] 122 % of control and 93 % of control and 103 % of control | [2] 115 % of control [middle of 4 runs]

CCOC(=O)CC1(C)c2nc(NC(C)=O)sc2Cc2sc(NC(C)=O)nc21
inactive: dose: 60.0 mg/kg/injection, schedule: Q01DX005 (ip), vehicle: saline 101 % of control | dose: 120.0 mg/kg/injection, schedule: Q01DX005 (ip), vehicle: saline 100 % of control | dose: 240.0 mg/kg/injection, schedule: Q01DX005 (ip), vehicle: saline 100 % of control

CC1CC[N-]C(N)N1.CC1CC[N-]C(N)N1.[Cl][Pd][Cl] (stereo unspecified)
inactive: dose: 60.0 mg/kg/injection, schedule: Q01DX005 (ip), vehicle: Klucel (hydroxypropylcellulose) (HPC) 97 % of control | dose: 120.0 mg/kg/injection, schedule: Q01DX005 (ip), vehicle: Klucel (hydroxypropylcellulose) (HPC) 97 % of control | dose: 240.0 mg/kg/injection, schedule: Q01DX005 (ip), vehicle: Klucel (hydroxypropylcellulose) (HPC) 90 % of control

CCOC1=Nc2ccccc2C1(C)CCO (stereo unspecified)
inactive: [6] 96 % of control | [7] 101 % of control | [8] 96 % of control

Cc1ccc(Cl)cc1N=Cc1cccs1
inactive: [3] 97 % of control | [4] 105 % of control | [5] 108 % of control

Cc1cc(Cl)nc2c1ccn2C1OCC(O)C(O)C1O (stereo unspecified)
inactive: dose: 16.0 mg/kg/injection, schedule: Q01DX001 (ip), vehicle: saline with Tween-80 102 % of control and 107 % of control | dose: 32.0 mg/kg/injection, schedule: Q01DX001 (ip), vehicle: saline with Tween-80 98 % of control and 107 % of control | dose: 64.0 mg/kg/injection, schedule: Q01DX001 (ip), vehicle: saline with Tween-80 107 % of control

S=C(N/N=C/c1ccccn1)N/N=C/c1ccccn1
inactive: [9] 117 % of control | [10] 103 % of control and 105 % of control | dose: 25.0 mg/kg/injection, schedule: Q01DX009 (ip), vehicle: distilled water + Tween-80 97 % of control | [11] 109 % of control and 120 % of control

CC1C=Cc2ccccc2NC1C (stereo unspecified)
inactive: [6] 101 % of control | [7] 102 % of control | [8] 97 % of control

CCCCCOC(=S)S
inactive: dose: 9.37 mg/kg/injection, schedule: Q01DX009 (ip), vehicle: saline 109 % of control | dose: 9.37 mg/kg/injection, schedule: Q04DX003 (ip), vehicle: saline with Tween-80 95 % of control | dose: 18.75 mg/kg/injection, schedule: Q01DX009 (ip), vehicle: saline 100 % of control | dose: 18.75 mg/kg/injection, schedule: Q04DX003 (ip), vehicle: saline with Tween-80 109 % of control | dose: 37.5 mg/kg/injection, schedule: Q01DX009 (ip), vehicle: saline 100 % of control | dose: 37.5 mg/kg/injection, schedule: Q04DX003 (ip), vehicle: saline with Tween-80 104 % of control

O=C(O)CCSC1=CC(=O)c2ccccc2C1=O
inactive: dose: 6.25 mg/kg/injection, schedule: Q04DX003 (ip), vehicle: gum acacia 115 % of control | dose: 12.5 mg/kg/injection, schedule: Q04DX003 (ip), vehicle: gum acacia 110 % of control

COc1ccc(C2=CC3CCC(C2)N3C)cc1 (stereo unspecified)
inactive: dose: 6.25 mg/kg/injection, schedule: Q01DX005 (ip), vehicle: Klucel (hydroxypropylcellulose) (HPC) 96 % of control | dose: 12.5 mg/kg/injection, schedule: Q01DX005 (ip), vehicle: Klucel (hydroxypropylcellulose) (HPC) 110 % of control | dose: 12.5 mg/kg/injection, schedule: Q01DX005 (ip), vehicle: saline 102 % of control | dose: 25.0 mg/kg/injection, schedule: Q01DX005 (ip), vehicle: Klucel (hydroxypropylcellulose) (HPC) 110 % of control and 113 % of control | dose: 25.0 mg/kg/injection, schedule: Q01DX005 (ip), vehicle: saline 98 % of control | dose: 50.0 mg/kg/injection, schedule: Q01DX005 (ip), vehicle: saline 94 % of control

O=C1SC/C(=N\N=c2/scc(-c3ccc(Br)cc3)n2-c2ccc(Br)cc2)N1Cc1ccccc1
inactive: dose: 100.0 mg/kg/injection, schedule: Q04DX002 (ip), vehicle: Klucel (hydroxypropylcellulose) (HPC) 91 % of control | dose: 200.0 mg/kg/injection, schedule: Q04DX002 (ip), vehicle: Klucel (hydroxypropylcellulose) (HPC) 92 % of control | dose: 400.0 mg/kg/injection, schedule: Q04DX002 (ip), vehicle: Klucel (hydroxypropylcellulose) (HPC) 90 % of control

O=C1C2C3CCC(O3)C2C(=O)N1CC#CCCl (stereo unspecified)
inactive: dose: 7.5 mg/kg/injection, schedule: Q01DX005 (ip), vehicle: saline with Tween-80 96 % of control | dose: 15.0 mg/kg/injection, schedule: Q01DX005 (ip), vehicle: saline with Tween-80 100 % of control

CSCC[C@]1(C)C(=O)N(C)[C@H](C(C)(C)C)N1C(=O)c1ccccc1
inactive: [6] 99 % of control | [7] 100 % of control | [8] 93 % of control

CCOc1ccc2nc(NN=O)sc2c1
inactive: dose: 1.56 mg/kg/injection, schedule: Q01DX009 (ip), vehicle: water 100 % of control | dose: 3.12 mg/kg/injection, schedule: Q01DX009 (ip), vehicle: water 100 % of control and 95 % of control | dose: 6.25 mg/kg/injection, schedule: Q01DX009 (ip), vehicle: water 101 % of control and 98 % of control | dose: 12.5 mg/kg/injection, schedule: Q01DX009 (ip), vehicle: water 100 % of control and 104 % of control | dose: 25.0 mg/kg/injection, schedule: Q01DX009 (ip), vehicle: water 100 % of control and 101 % of control | dose: 50.0 mg/kg/injection, schedule: Q01DX009 (ip), vehicle: water 104 % of control
